The test system of the assay is brain. Kind of assay: Maturation of TTM-001 capsid, NGS enrichment in brain of CD-1 Outbred mice. Format: in vivo. Particulars: NGS fold-enrichment of TTM-001 matured AAV capsid variants in the brain of CD-1 Outbred mice; intravenous 1.0×10^12 VG/dose; 14 days in life; RNA; relative to non-matured TTM-001 control. In outline: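 Brain enrichment read by NGS after RNA extraction and RT-PCR, expressed as fold ratio over the matching parental capsid (TTM-001 or TTM-002). Libraries, mutated around loop IV positions 449/450–466, were injected intravenously (tail vein, 1.0×10^12 VG/dose) into three female CD-1 mice; brains harvested at 14 days.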

As for KTINGSGSPHSKAQMKCT, the “Fold enrichment over TTM-001” value was 2.039 fold. Next, KTINGSGSPHSKAQNAKS: 2.009 fold. Take KTINGFLSPHRKAQNQQT: the “Fold enrichment over TTM-001” value worked out at 2.654 fold.

Regarding KTINGSGSPHSKRSMQQT, the “Fold enrichment over TTM-001” value was 3.561 fold.

As for KTINGSGSPHSKKVSQQT, the “Fold enrichment over TTM-001” value is listed as 2.088 fold. For KTINGSGSPHSKTSRQQT, the “Fold enrichment over TTM-001” value is reported as 2.132 fold. As for “KYLSGSGSPHSKAQNQQT (peptide inserted in AAV capsid)”, the “Fold enrichment over TTM-001” value came out at 4.264 fold. The value for KTINGLRSPHRKAQNQQT was 3.676 fold; that for KTINGSGSPHSKAQLVLT was 2.508 fold. In the case of KTINGSGSPHSKASKQQT, the “Fold enrichment over TTM-001” value was 2.069 fold.

For KTINGSGSPHCLLQNQQT, the “Fold enrichment over TTM-001” value stood at 4.898 fold. Next, KTINGSGSPHSKRPFQQT: 2.076 fold; KTINGSGSPHLCLQNQQT: 3.425 fold. Next, “KYSVGSGSPHSKAQNQQT (peptide inserted in AAV capsid)”: 3.365 fold.

For the sequence KTINGSGSPHSFRLNQQT, the “Fold enrichment over TTM-001” value stood at 2.158 fold. With KTINGSMSPHRKAQNQQT, the “Fold enrichment over TTM-001” value stood at 2.251 fold. Next, KTINGSGSPHSKPTRQQT: 3.201 fold. Take KTINGSGSPHGLWQNQQT: the “Fold enrichment over TTM-001” value was 2.181 fold.

Regarding KTINGSGSPHSKAQRRLT, the “Fold enrichment over TTM-001” value was determined as 4.227 fold.

Regarding KTINGQRSPHSKAQNQQT, the “Fold enrichment over TTM-001” value worked out at 2.590 fold. Regarding KTINGSGSPHSYLLNQQT, the “Fold enrichment over TTM-001” value was 2.147 fold. In the case of KTINGSGSPHSKSRWQQT, the “Fold enrichment over TTM-001” value is on record as 3.698 fold. Consider KTINGSGSPHSKVARQQT, for which the “Fold enrichment over TTM-001” value is on record as 2.136 fold. On to KTINGSGSPHSKAQSSRT, for which the “Fold enrichment over TTM-001” value was 2.575 fold.

Consider KTINGSGSPHSKAPNHLT, for which the “Fold enrichment over TTM-001” value is 2.324 fold. KTINGSGSPHSKLRSQQT: the “Fold enrichment over TTM-001” value came out at 2.309 fold.

On to KTINGSGSPHSKAHRSQT, for which the “Fold enrichment over TTM-001” value is 2.819 fold. Next, “KTINGSVSPHLYAQNQQT (peptide inserted in AAV capsid)”: 2.028 fold.

As to KTINGALSPHRKAQNQQT, the “Fold enrichment over TTM-001” value is reported as 2.203 fold. The value for KTINGSGSPHSKRVPQQT was 3.048 fold. The value for KTINGSGSPHSSRRNQQT was 4.920 fold; that for KTINGSGSPHYLVQNQQT was 3.819 fold. The value for KTRSRSGSPHSKAQNQQT was 3.669 fold; that for KTINGSGSPHSKWLLQQT was 4.521 fold; that for KTINGSGSPHSKAQWSVT was 2.501 fold. With KTINGSGSPHSRTYNQQT, the “Fold enrichment over TTM-001” value came out at 2.009 fold. Take KTINGSGSPHTLFQNQQT: the “Fold enrichment over TTM-001” value is 2.136 fold. In the case of KTINGSGSPHSLYLNQQT, the “Fold enrichment over TTM-001” value came to 3.264 fold. As to KTINGSNSPHRKAQNQQT, the “Fold enrichment over TTM-001” value worked out at 2.218 fold. Next, KTINGSGSPHSKARPFQT: 2.443 fold. Regarding KTINGRTSPHAKAQNQQT, the “Fold enrichment over TTM-001” value is reported as 2.060 fold.

KEVMGSGSPHSKAQNQQT: the “Fold enrichment over TTM-001” value is 2.047 fold.

KTINGRSSPHPKAQNQQT: the “Fold enrichment over TTM-001” value stood at 2.596 fold.

Turning to KTINGSGSPHSVFLNQQT, the “Fold enrichment over TTM-001” value stood at 2.069 fold. KTINGSGSPHSKAQRHVT: the “Fold enrichment over TTM-001” value is listed as 3.404 fold.

As to KTINGSGSPHSKRVLQQT, the “Fold enrichment over TTM-001” value is 2.035 fold. The value for KTINGSGSPHTWSQNQQT was 2.011 fold; that for KTINGSGSPHSSLCNQQT was 2.592 fold; that for KTINGSGSPHSKRSFQQT was 2.197 fold. Consider KTINGSGSPHSKAQSSKT, for which the “Fold enrichment over TTM-001” value is 2.078 fold. In the case of KTINGSGSPHSKAQLYRT, the “Fold enrichment over TTM-001” value is given as 4.108 fold. Regarding “KTINGSSSPHLCAQNQQT (peptide inserted in AAV capsid)”, the “Fold enrichment over TTM-001” value amounted to 3.402 fold. Consider KRLFGSGSPHSKAQNQQT, for which the “Fold enrichment over TTM-001” value was determined as 2.330 fold. For the sequence KTINGSGSPHSKQRSQQT, the “Fold enrichment over TTM-001” value was 2.395 fold. Next, KTINMLRSPHSKAQNQQT: 2.000 fold. In the case of KTINGMCSPHSKAQNQQT, the “Fold enrichment over TTM-001” value is reported as 2.006 fold. The value for KTINGLTSPHRKAQNQQT was 2.663 fold; that for KTINGSGSPHSKAQTTRT was 2.385 fold. Consider KTINGSGSPHTLYQNQQT, for which the “Fold enrichment over TTM-001” value amounted to 3.117 fold. As to KTINGSGSPHSKRLPQQT, the “Fold enrichment over TTM-001” value was 2.279 fold. For the sequence KTINGSGSPHSKARITQT, the “Fold enrichment over TTM-001” value is on record as 2.525 fold. Take KTINGSGSPHSKAKHLQT: the “Fold enrichment over TTM-001” value is 2.870 fold.

As to KTINGSGSPHCSLQNQQT, the “Fold enrichment over TTM-001” value came to 4.540 fold. With KTINGSGSPHSTWTNQQT, the “Fold enrichment over TTM-001” value was determined as 2.307 fold. For the sequence KTINGSGSPHSLFLNQQT, the “Fold enrichment over TTM-001” value is recorded as 3.358 fold.

Consider KTINGSPSPHYLAQNQQT, for which the “Fold enrichment over TTM-001” value was 2.391 fold. KTINGSGSPHSKARMQQT: the “Fold enrichment over TTM-001” value came to 2.184 fold.

For the sequence KTINGSKSPHFKAQNQQT, the “Fold enrichment over TTM-001” value came out at 3.285 fold.

As to KTINGSPSPHRRAQNQQT, the “Fold enrichment over TTM-001” value is recorded as 3.216 fold. Take KTINGSGSPHSKGRSQQT: the “Fold enrichment over TTM-001” value was 2.080 fold.

For the sequence KTINGILSPHRKAQNQQT, the “Fold enrichment over TTM-001” value is on record as 2.475 fold. Next, KTINGSGSPHSRYSNQQT: 2.536 fold; KTINGSGSPHSKLRMQQT: 2.106 fold; KTINGSGSPHSGLWNQQT: 2.350 fold. For the sequence KTINGRISPHLKAQNQQT, the “Fold enrichment over TTM-001” value came out at 2.028 fold. The value for KTINGSGSPHSYRPNQQT was 3.095 fold; that for KAFNGSGSPHSKAPNQQT was 2.088 fold. Take KTINGSGSPHIYRQNQQT: the “Fold enrichment over TTM-001” value was 2.782 fold. Take KTINGSGSPHSKKGGQQT: the “Fold enrichment over TTM-001” value turned out to be 2.009 fold. KTINGSASPHVFAQNQQT: the “Fold enrichment over TTM-001” value amounted to 2.186 fold.

For the sequence KTINGSGSPHSKAQKRST, the “Fold enrichment over TTM-001” value is reported as 2.151 fold. Take KTINGSGSPHSKAQSLKT: the “Fold enrichment over TTM-001” value came to 2.110 fold. Regarding KTINGSKSPHRTAQNQQT, the “Fold enrichment over TTM-001” value came to 2.950 fold.

As to KQPLGSGSPHSKAQNQQT, the “Fold enrichment over TTM-001” value worked out at 2.024 fold. Next, KTINGRASPHVKAQNQQT: 2.272 fold; KTINGSGSPHSKAQRLWT: 2.611 fold.
